From patent US12649751B2 (Arcus Biosciences, Inc., priority 2022, dated 2026) come the findings set out here.

The structures appear in SMILES notation. Where two headings read alike, the source gives them in different places. Where only a bound is given, the exact number is not on record here.

Test [1] relates to p-SLP-76 (Ser376) in Jurkat cells. The test can be described thus: pSLP76 Cellular Assay (AlphaLISA SureFire Ultra p-SLP-76 (Ser376), anti-CD3 activated Jurkat cells). It counts as cell-based. Conditions: Homo sapiens, read-out: Cellular Potency. Summed up: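 Read-out is AlphaLISA p-SLP-76 (Ser376) signal at 570 nm in Jurkat lysates, with IC50 fitted by 4-parameter logistic. Cells were starved overnight, exposed 1 h at 37 °C to 22 twofold compound dilutions in HBSS, then activated 45 min with anti-CD3 (0.025 mg/ml stock added).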
(Alpha assays give light when donor and acceptor beads are brought close together.)

The next test has as its target HPK1 (Homo sapiens, UniProt Q92918). The test can be described thus: HPK1 Biochemical Assay (ADP-Glo luminescence; low ATP 10 μM or high ATP 200 μM). (ADP-Glo first removes unused ATP, then detects ADP through luciferase.)
Setting [2] is: Jurkat cells, anti-CD3 stimulation, pSLP76.
Where [3] appears, read: 2 nM HPK1, 10 μM ATP, read-out: Biochemical Potency (low ATP).
Where [4] appears, read: pSLP76 (Ser376) AlphaLISA, anti-CD3 activated Jurkat cells.
Where [5] appears, read: HPK1 ADP-Glo assay, high ATP (200 μM ATP, 5 nM HPK1), read-out: Biochemical Potency (high ATP).
[6] abbreviates: HPK1 ADP-Glo assay, low ATP (10 μM ATP, 2 nM HPK1), read-out: Biochemical Potency (low ATP).

HPK1, sequence (Q92918 whole entry, species assumed): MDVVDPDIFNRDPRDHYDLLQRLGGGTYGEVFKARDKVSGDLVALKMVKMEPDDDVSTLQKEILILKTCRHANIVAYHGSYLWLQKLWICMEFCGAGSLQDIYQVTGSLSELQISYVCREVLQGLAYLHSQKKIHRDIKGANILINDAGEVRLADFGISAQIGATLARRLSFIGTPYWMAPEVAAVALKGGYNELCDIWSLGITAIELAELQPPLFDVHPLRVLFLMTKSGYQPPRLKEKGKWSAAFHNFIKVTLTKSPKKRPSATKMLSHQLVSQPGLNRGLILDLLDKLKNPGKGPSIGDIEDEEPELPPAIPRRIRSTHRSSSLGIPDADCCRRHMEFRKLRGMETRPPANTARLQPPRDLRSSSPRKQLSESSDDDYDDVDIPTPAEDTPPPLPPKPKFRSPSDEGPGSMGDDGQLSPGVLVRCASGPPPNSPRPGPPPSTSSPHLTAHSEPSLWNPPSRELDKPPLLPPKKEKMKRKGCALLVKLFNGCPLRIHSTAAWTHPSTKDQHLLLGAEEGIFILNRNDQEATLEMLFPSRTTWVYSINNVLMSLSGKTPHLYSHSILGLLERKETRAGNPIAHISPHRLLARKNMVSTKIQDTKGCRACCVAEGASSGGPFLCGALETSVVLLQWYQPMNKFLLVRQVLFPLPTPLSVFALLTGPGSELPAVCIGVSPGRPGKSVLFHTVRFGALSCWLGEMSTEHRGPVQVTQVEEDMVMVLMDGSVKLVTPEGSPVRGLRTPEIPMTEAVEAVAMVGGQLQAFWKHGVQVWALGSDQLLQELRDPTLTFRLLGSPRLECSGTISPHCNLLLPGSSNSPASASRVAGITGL

`CN1C[C@@H]2C[C@H]1CN2c1nccc(Nc2cc3nc(-c4cccc(S(=O)(=O)N(C)C)c4)sc3cn2)n1` [Example 289, N,N-dimethyl-3-[6-({2-[(1S,4S)-5-methyl-2,5-diazabicyclo[2.2.1]heptan-2-yl]pyrimidin-4-yl}amino)-[1,3]thiazolo[5,4-c]pyridin-2-yl]benzene-1-sulfonamide]: the IC50 in test [1] (setting [2]) was 0.1 to 1 µM; at HPK1 (setting [3]) it was below 0.1 µM.
The corresponding values for `CNS(=O)(=O)c1cccc(-c2nc3cc(Nc4cncc(N5C[C@@H]6C[C@H]5CN6C)n4)ncc3s2)c1` [Example 290, N-methyl-3-[6-({6-[(1S,4S)-5-methyl-2,5-diazabicyclo[2.2.1]heptan-2-yl]pyrazin-2-yl}amino)-[1,3]thiazolo[5,4-c]pyridin-2-yl]benzene-1-sulfonamide] are 0.1 to 1 µM and below 0.1 µM.
The corresponding values for `CNS(=O)(=O)c1cccc(-c2nc3cc(Nc4ccnc(N5C[C@@H]6C[C@H]5CN6C)n4)ncc3s2)c1` [Example 291, N-methyl-3-[6-({2-[(1S,4S)-5-methyl-2,5-diazabicyclo[2.2.1]heptan-2-yl]pyrimidin-4-yl}amino)-[1,3]thiazolo[5,4-c]pyridin-2-yl]benzene-1-sulfonamide] are 0.1 to 1 µM and below 0.1 µM.
On to `CCN1C[C@@H]2C[C@H]1CN2c1nc(C)cc(Nc2cc3nc(-c4cncc(N5C(=O)OC[C@H]5C)c4)sc3cn2)n1` [Example 295, (4R)-3-{5-[6-({2-[(1S,4S)-5-ethyl-2,5-diazabicyclo[2.2.1]heptan-2-yl]-6-methylpyrimidin-4-yl}amino)-[1,3]thiazolo[5,4-c]pyridin-2-yl]pyridin-3-yl}-4-methyl-1,3-oxazolidin-2-one], for which the IC50 in test [1] (setting [4]) is 0.1 to 1 µM; on HPK1 (setting [5]) it was below 0.1 µM.
For `CCN1C[C@@H]2C[C@H]1CN2c1nc(C)cc(Nc2cc3nc(-c4nc(N)ccc4C)sc3cn2)n1` [Example 296, N-[2-(6-amino-3-methylpyridin-2-yl)-[1,3]thiazolo[5,4-c]pyridin-6-yl]-2-[(1S,4S)-5-ethyl-2,5-diazabicyclo[2.2.1]heptan-2-yl]-6-methylpyrimidin-4-amine], the IC50 (in test [1] (setting [4]); at HPK1 (setting [5])) was below 0.1 µM throughout.
Regarding `CCN1C[C@@H]2C[C@H]1CN2c1nc(C)cc(Nc2cc3nc(-c4cncc(N5CCOC[C@H]5C)c4)sc3cn2)n1` [Example 297, 2-[(1S,4S)-5-ethyl-2,5-diazabicyclo[2.2.1]heptan-2-yl]-6-methyl-N-(2-{5-[(3R)-3-methylmorpholin-4-yl]pyridin-3-yl}-[1,3]thiazolo[5,4-c]pyridin-6-yl)pyrimidin-4-amine], the IC50 in test [1] (setting [4]) was 0.1 to 1 µM; at HPK1 (setting [5]) it was below 0.1 µM.
The corresponding values for `CCN1C[C@@H]2C[C@H]1CN2c1nc(C)cc(Nc2cc3nc(O[C@H](C)c4ccccc4)sc3cn2)n1` [Example 298, 2-[(1S,4S)-5-ethyl-2,5-diazabicyclo[2.2.1]heptan-2-yl]-6-methyl-N-{2-[(1R)-1-phenylethoxy]-[1,3]thiazolo[5,4-c]pyridin-6-yl}pyrimidin-4-amine] are below 0.1 µM and below 0.1 µM.
The corresponding values for `Cc1cc(Nc2cc3nc(-c4nncn4C)sc3cn2)nc(N2C[C@@H]3C[C@H]2CN3CCO)n1` [Example 299, 2-[(1S,4S)-5-(4-methyl-6-{[2-(4-methyl-4H-1,2,4-triazol-3-yl)-[1,3]thiazolo[5,4-c]pyridin-6-yl]amino}pyrimidin-2-yl)-2,5-diazabicyclo[2.2.1]heptan-2-yl]ethan-1-ol] are 0.1 to 1 µM and below 0.1 µM.
Turning to `Cc1cccnc1-c1nc2cc(Nc3ccc4c(n3)CNCC4)ncc2s1` [Example 300, N-[2-(3-methylpyridin-2-yl)-[1,3]thiazolo[5,4-c]pyridin-6-yl]-5,6,7,8-tetrahydro-1,7-naphthyridin-2-amine], the IC50 was 1 to 5 µM in test [1] (setting [4]) and below 0.1 µM at HPK1 (setting [6]).
Turning to `Cc1cc(Nc2cc3nc(-c4cnn(C)c4)sc3cn2)nc(N2C[C@@H]3C[C@H]2CN3CCO)n1` [Example 301, 2-[(1S,4S)-5-(4-Methyl-6-{[2-(1-methyl-1H-pyrazol-4-yl)-[1,3]thiazolo[5,4-c]pyridin-6-yl]amino}pyrimidin-2-yl)-2,5-diazabicyclo[2.2.1]heptan-2-yl]ethan-1-ol], the IC50 (in test [1] (setting [4]); on HPK1 (setting [5])) was below 0.1 µM throughout.
Turning to `Cc1cccnc1-c1nc2cc(Nc3cc(C4CCC(O)CC4)nc(N4C[C@@H]5C[C@H]4CN5)n3)ncc2s1` (stereo partly drawn) [Example 302, 4-{2-[(1S,4S)-2,5-diazabicyclo[2.2.1]heptan-2-yl]-6-{[2-(3-methylpyridin-2-yl)-[1,3]thiazolo[5,4-c]pyridin-6-yl]amino}pyrimidin-4-yl}cyclohexan-1-ol], the IC50 (in test [1] (setting [4]); at HPK1 (setting [5])) was below 0.1 µM in each case.
For the compound `Cc1cccnc1-c1nc2cc(Nc3cc(C(C)(C)O)nc(N4C[C@@H]5C[C@H]4CN5C)n3)ncc2s1` [Example 304, 2-{2-[(1S,4S)-5-methyl-2,5-diazabicyclo[2.2.1]heptan-2-yl]-6-{[2-(3-methylpyridin-2-yl)-[1,3]thiazolo[5,4-c]pyridin-6-yl]amino}pyrimidin-4-yl}propan-2-ol], the IC50 in test [1] (setting [4]) was 0.1 to 1 µM; at HPK1 (setting [5]), below 0.1 µM.
The corresponding values for `CCN1C[C@@H]2C[C@H]1CN2c1nc(C)cc(Nc2cc3nc(-c4cccc(C(=O)N5CC[C@@H](C)C5)c4)sc3cn2)n1` [Example 305, [(R)-3-methyl-1-pyrrolidinyl]{m-[6-(2-{(1S,4S)-5-ethyl-2,5-diazabicyclo[2.2.1]hept-2-yl}-6-methyl-4-pyrimidinylamino)-3-thia-1,5-diaza-2-indenyl]phenyl}methanone] are below 0.1 µM and below 0.1 µM.
The corresponding values for `Cc1cc(Nc2cc3nc(-c4ccnc(C(O)C5CC5)c4)sc3cn2)nc(N2C[C@@H]3C[C@H]2CN3CCO)n1` (stereo partly drawn) [Example 307, 2-[(1S,4S)-5-(4-{2-[2-(cyclopropylhydroxymethyl)-4-pyridyl]-3-thia-1,5-diaza-6-indenylamino}-6-methyl-2-pyrimidinyl)-2,5-diazabicyclo[2.2.1]hept-2-yl]ethanol] are below 0.1 µM and below 0.1 µM.
The corresponding values for `Cc1cc(Nc2cc3nc(-c4ccnc(CC5CC5)c4)sc3cn2)nc(N2C[C@@H]3C[C@H]2CN3CCO)n1` [Example 308, 2-[(1S,4S)-5-(4-{2-[2-(cyclopropylmethyl)-4-pyridyl]-3-thia-1,5-diaza-6-indenylamino}-6-methyl-2-pyrimidinyl)-2,5-diazabicyclo[2.2.1]hept-2-yl]ethanol] are below 0.1 µM and below 0.1 µM.
In the case of `Cc1cc(Nc2cc3nc(-c4cnn(C)c4C(C)(C)O)sc3cn2)nc(N2C[C@@H]3C[C@H]2CN3C)n1` [Example 309, 2-{4-[6-(2-{(1S,4S)-5-methyl-2,5-diazabicyclo[2.2.1]hept-2-yl}-6-methyl-4-pyrimidinylamino)-3-thia-1,5-diaza-2-indenyl]-1-methyl-5-pyrazolyl}-2-propanol], the IC50 (in test [1] (setting [4]); at HPK1 (setting [5])) was below 0.1 µM each time.
As to `CCN1C[C@@H]2C[C@H]1CN2c1nc(C)cc(Nc2cc3nc(-c4cccc(CN5CCOC5=O)c4)sc3cn2)n1` [Example 310, (2-{(1S,4S)-5-ethyl-2,5-diazabicyclo[2.2.1]hept-2-yl}-6-methyl-4-pyrimidinyl)(2-{m-[(2-oxo-1,3-oxazolidin-3-yl)methyl]phenyl}-3-thia-1,5-diaza-6-indenyl)amine], the IC50 in test [1] (setting [4]) was 0.1 to 1 µM; on HPK1 (setting [5]), below 0.1 µM.
The corresponding values for `CCN1C[C@@H]2C[C@H]1CN2c1nc(C)cc(Nc2cc3nc(-c4cccc(C(=O)N(C)C5CCN(S(C)(=O)=O)CC5)c4)sc3cn2)n1` [Example 311, N-(1-mesyl-4-piperidyl)-N-methylm-[6-(2-{(1S,4S)-5-ethyl-2,5-diazabicyclo[2.2.1]hept-2-yl}-6-methyl-4-pyrimidinylamino)-3-thia-1,5-diaza-2-indenyl]benzamide] are 0.1 to 1 µM and below 0.1 µM.
For the compound `Cc1cc(Nc2cc3nc(-c4cccc5c4CCCN5S(C)(=O)=O)sc3cn2)nc(N2C[C@@H]3C[C@H]2CN3C)n1` [Example 312, N-[2-(1-methanesulfonyl-1,2,3,4-tetrahydroquinolin-5-yl)-[1,3]thiazolo[5,4-c]pyridin-6-yl]-6-methyl-2-[(1S,4S)-5-methyl-2,5-diazabicyclo[2.2.1]heptan-2-yl]pyrimidin-4-amine], the values for the IC50 (in test [1] (setting [4]); on HPK1 (setting [5])) were 1 to 5 µM and 0.1 to 1 µM, respectively.
Turning to `Cc1cc(Nc2cc3nc(-c4cccc5c4CCCN5)sc3cn2)nc(N2C[C@@H]3C[C@H]2CN3C)n1` [Example 313, 6-methyl-2-[(1S,4S)-5-methyl-2,5-diazabicyclo[2.2.1]heptan-2-yl]-N-[2-(1,2,3,4-tetrahydroquinolin-5-yl)-[1,3]thiazolo[5,4-c]pyridin-6-yl]pyrimidin-4-amine], the IC50 (in test [1] (setting [4]); at HPK1 (setting [5])) was below 0.1 µM throughout.
For `Cc1cccnc1-c1nc2cc(Nc3cccc(C4(F)CC5CC4CN5)n3)ncc2s1` (stereo not shown) [Example 315, {6-(5-fluoro-2-azabicyclo[2.2.1]hept-5-yl)-2-pyridyl}[2-(3-methyl-2-pyridyl)-3-thia-1,5-diaza-6-indenyl]amine], the IC50 is 1 to 5 µM in test [1] (setting [4]), below 0.1 µM at HPK1 (setting [5]) and below 0.1 µM on HPK1 (setting [6]).
